Legend:
[1] = tested on: pilocarpine-induced seizures; test: Pilocarpine-induced seizures; type: in vivo, mouse
Experimental: Drug administration: All experiments with MG utilized crude MG obtained from Sigma-Aldrich. For pre-treatment, MG (50 or 200 mg/kg) or vehicle (0.9% saline) was administered by i.p. injection 10 minutes before the seizure-inducing agent. For treatment after seizure onset, MG (200 mg/kg) or vehicle (0.9% saline) was administered by i.p. injection ten minutes after seizure onset. For GLO1 inhibition, BrBzGCp2 (50 mg/kg) or vehicle (8% DMSO and 18% Tween-80) was administered by i.p. injection two hours before seizure induction.
Seizure induction: For picrotoxin-induced seizures, 5 mg/kg of picrotoxin in 0.9% saline was administered by i.p. injection. Seizures were scored for one hour after picrotoxin administration. For pilocarpine-induced seizures, mice were pre-treated with atropine (5 mg/kg in 0.9% saline) by i.p. injection in order to reduce the peripheral effects of pilocarpine. Thirty minutes after atropine administration, pilocarpine was administered by i.p. injection. B6 mice were treated with 250 mg/kg pilocarpine in 0.9% saline, and FVB mice (WT and Tg) were treated with 300 mg/kg pilocarpine in 0.9% saline. Seizures were scored for 90 minutes after pilocarpine administration.
Pilocarpine-induced seizures were scored as previously reported (Winawer 2011):
Stage 1: Immobility/Lying Low
Stage 2: Partial (limbic) seizures. Non-continuous twitching/tremor/shaking of tail/head/body/limbs, forelimb and/or tail extension, rigid posture, repetitive movements, head bobbing
Stage 3: Partial status epilepticus. Continuous tremor/clonic seizures of body and tail while retaining posture
Stage 4: Generalized seizures. Rearing/hyperexcitability/running/falling, tonic extension/clonic seizures with loss of posture
Stage 5: Generalized status epilepticus (continuous stage 4 seizures) resulting in death

mice [2] = test: Signs of toxicity after chronic administration; type: in vivo; settings: chronic pBBG by osmotic minipump
Experimental: (A) Chronic (14 day) treatment by osmotic minipump with 5 or 10 mg/kg/day pBBG reduced immobility in the FST, establishing that chronic administration has antidepressant effects.

purified human GLO1 = purified human GLO1 (Homo sapiens, UniProt Q04760); test: GLO1 enzymatic activity assay with purified protein; type: biochemical; settings: 100 μM BrBzGCp2, 10 ng purified GLO1
Experimental: GLO1 activity was assayed by measuring the rate of formation of S-d-lactoylglutathione (Allen 1993).
Purified protein: 100 ng of purified protein was added to a hemithioacetal substrate, and enzymatic activity was measure as described above.
Enzymatic activity: Vehicle (DMSO) or 100 μM BrBzGCp2 was added to 10 ng of purified human GLO1. Enzymatic activity was measured as described above.

GLO1 = target: T1, GLO1 (Mus musculus, UniProt Q9CPU0); test: HPLC measurement of MG concentration in whole brain after i.p. BrBzGCp2; type: in vivo; settings: BrBzGCp2 30 mg/kg i.p., two hours
T1 construct: from tissue; host or cells: whole brain of WT C57BL/6J mice, in vivo dosing
Experimental: MG concentration was measured by HPLC as previously described with modifications (Dhar 2009). Tissue was homogenized in 50 mM sodium phosphate buffer (pH 6.6) and 0.8N perchloric acid. It was then incubated on ice for 10 minutes and centrifuged. The supernatant was filtered, and MG was derivatized with 10 mM o-phenylenediamine to form 2-methylquinoxaline (2-MQ). 5-methylquinoxaline (5-MQ, 15 μM) was spiked into each sample as an internal standard. 2-MQ was quantified using an HP 1100 HPLC system (Agilent) with a Nova-Pak C18 column (Waters Corporation). Column effluent was monitored at 315 nm. 2-MQ concentration was determined by comparison to 2-MQ standards of known mass. Quantification of 2-MQ was corrected for losses by comparison with 5-MQ. MG concentration was calculated as 2-MQ/tissue weight.
Treatment: BrBzGCp2 was dissolved in vehicle (8% DMSO and 18% Tween-80). Mice were treated i.p. with 10 ml/kg BrBzGCp2 or vehicle.
HPLC: 2 hours post-injection, mice were sacrificed, and brains were rapidly dissected and flash-frozen on dry ice. MG concentration was measured as described above.

mice [3] = test: Observation of sedation or gross deficits in treated mice; settings: mice treated with BrBzGCp2
[4] = tested on: depression-like behavior in mice; test: Chronic forced swim test (cFST), osmotic minipump; type: in vivo, mouse; settings: 14 days
Experimental: To fully assess the therapeutic potential of GLO1 inhibitors, it is necessary to utilize behavioral models sensitive to chronic administration. These models are highly informative as the therapeutic onset of antidepressant action mimics clinical onset in humans. pBBG was administered by osmotic minipumps (Alzet) for 14 days at various doses (0, 5, 10, 15, 30 and 60 mg/kg/day) to establish a dose response curve. Osmotic minipumps are ideal for chronic treatment as they release a constant volume at a very slow rate minimizing the stress of multiple injections.

[5] = tested on: anxiety-like behavior and locomotion in mice; test: Open field (OF) test; type: in vivo, mouse; settings: 14 days
[6] = tested on: anxiety-like behavior and locomotion in mice; test: Open field (OF) test; type: in vivo, mouse
Experimental: OF test: Mice were placed into the center of the OF, and activity was monitored for five to ten minutes. The apparatus was illuminated to approximately 40 lux. Data were collected and processed using the manufacturer's software (AccuScan Instruments).
OF test: Ten minutes post-injection, mice were placed into the center of the OF. The apparatus was illuminated to approximately 40 lux. Behavior was measured as described above.
OF test replication studies: Ten to twenty minutes post-injection, mice were tested in the OF for five to ten minutes. In some experiments, behavior was scored as described above. In other experiments, mice were tested in the OF, and behavior was automatically scored by the Noldus Ethovision System. For mice tested in the Noldus system, the apparatus was illuminated to approximately 1,000 lux.
Chronic MG administration: For five days, mice were injected twice daily with vehicle or MG (4 mg/kg). Twelve hours after the final injection, mice were tested in the OF as described above.
Pure MG: Pure MG was obtained from Dr. John Termini at the City of Hope, Duarte, Calif. It was administered at the indicated doses by i.p. injection. Mice were tested as described above.
OF test: Two hours post-injection, mice were tested in the OF test as described above. The center size was 10×10 cm. The apparatus was illuminated to approximately 40 lux.

[7] = tested on: depression-like behavior in mice; test: Tail suspension test (TST); type: in vivo, mouse; settings: pBBG pretreatment
Experimental: Mice were suspended by their tails using adhesive tape attached to a bar elevated approximately 46 cm above a table. The apparatus was illuminated to approximately 1,000 lux. Mice were tested individually, and time spent immobile was scored manually for six minutes. For MG studies, mice were treated with vehicle (0.9% saline) or crude MG (Sigma-Aldrich, 50 mg/kg) by i.p. injection ten minutes before the test. Behavior was scored for five minutes.

[8] = tested on: depression-like behavior in mice; test: Forced swim test (FST), acute treatment; type: in vivo, mouse; settings: pBBG 50 mg/kg i.p., two hours later; C57BL/6J, FVB/nJ and BALB/cJ mice
Experimental: The forced swim test (FST) is a highly reliable screen used to predict antidepressant efficacy after acute antidepressant treatments (Petit-Demouliere, Chenu & Bourin 2005). The FST relies on the phenomenon that relative to no treatment, mice receiving treatment with antidepressants will spend more time performing escape-oriented behaviors than immobile postures. […] Mice on three genetic backgrounds (C57BL/6J, FVB/nJ and BALB/cJ) were treated with 50 mg/kg pBBG (i.p.) and assessed depression-like behavior in the FST two hours later.

[9] = BrBzGCp2 30 mg/kg i.p., B6 mice, two hours post-injection

T1 sequence (Q9CPU0 2-184 limits assumed): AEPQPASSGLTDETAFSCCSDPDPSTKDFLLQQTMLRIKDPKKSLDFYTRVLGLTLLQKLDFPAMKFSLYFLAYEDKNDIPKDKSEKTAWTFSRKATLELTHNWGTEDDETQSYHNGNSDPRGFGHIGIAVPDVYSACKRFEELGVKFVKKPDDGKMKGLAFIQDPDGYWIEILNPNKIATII
Sequence of purified human GLO1 (Q04760 whole entry): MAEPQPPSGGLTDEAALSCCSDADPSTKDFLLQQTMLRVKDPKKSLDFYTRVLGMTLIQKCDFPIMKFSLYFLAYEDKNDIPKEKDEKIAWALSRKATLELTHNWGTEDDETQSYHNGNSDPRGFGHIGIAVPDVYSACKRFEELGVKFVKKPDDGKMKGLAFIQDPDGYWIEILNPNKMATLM

N[C@@H](CCC(=O)N[C@@H](CSCc1ccc(Br)cc1)C(=O)NCC(=O)OC1CCCC1)C(=O)OC1CCCC1 [BrBzGCp2, S-bromobenzylglutathione cyclopentyl diester]
seizure stage ([1]; BrBzGCp2 50 mg/kg i.p. two hours before pilocarpine): did not affect seizure stage
seizure duration (time in stage 3) ([1]; BrBzGCp2 50 mg/kg i.p. two hours before pilocarpine 250 mg/kg): reduced seizure durations
seizure latency ([1]; BrBzGCp2 50 mg/kg i.p. two hours before pilocarpine, data not shown): did not significantly affect seizure latency
signs of toxicity following chronic administration (mice [2]): none were observed
GLO1 enzymatic activity (purified human GLO1): inhibit GLO1 enzymatic activity in vitro
increase of MG concentration in the brain (GLO1): approximately 20%
sedation or gross deficits (mice [3]): did not display sedation or gross deficits
immobility in the FST compared with fluoxetine ([4]; pBBG 5 mg/kg/day): reduced immobility in the FST to a similar extent as a selective serotonin reuptake inhibitor
immobility in the FST after chronic treatment ([4]; pBBG 5 or 10 mg/kg/day): reduce immobility in the FST
immobility in the FST after chronic treatment ([4]; pBBG 30, 60 mg/kg/day): increased immobility in the FST
total distance traveled in the OFT ([5]; pBBG 5, 10, or 15 mg/kg/day): had no effect on total distance traveled in the OFT
total distance traveled in the OFT ([5]; pBBG 15, 30 or 60 mg/kg/day): also had no effect on total distance traveled
center time in the OF test [6, 9]: increased center time in the OF test
distance traveled in the OF test [6, 9]: without changing distance traveled
anxiogenic effect of the Glo1 duplication in the OF ([6]; BrBzGCp2 50 mg/kg i.p., CD-1 mice with Glo1 duplication): reversed this effect
center time in the OF ([6]; BrBzGCp2 50 mg/kg i.p., CD-1 mice, two hours post-injection): increased center time in the OF
immobility on the TST ([7]; C57BL/6J (B6) mice): decreased immobility on the TST
immobility on the TST ([7]; FVB/NJ mice): decreased immobility on the TST
immobility in the FST [8]: reduced immobility in all strains

Source: patent publication US11235020B2, “Methods and compositions for inhibiting glyoxalase 1 (GLO1)” (priority 2013, dated 2022)
